Read-outs that look alike come from different tables or passages of the source.

The target in data set [1] is pseudo-kinase domain (JH2) of human V617F mutant JAK2 (Homo sapiens (Human), UniProt O60674, F794H/V617F/W659A/W777A). Briefly: JAK2 LanthaScreen JH2-V617F Binding Assay. The settings on record: read-out: JH2 V617F Bind IC50. The procedure: JAK2 JH2-V617F binding assay utilizes pseudo-kinase domain (JH2, amino-acids 536-812 with 3 surface mutations W659A, W777A, F794H) of human V617F mutant JAK2 expressed as C-terminal His-Avi-tagged, biotinylated protein in a baculovirus expression system (BPS Bioscience, Catalog #79498). The assay was conducted in black 384-well polystyrene plates in a final reaction volume of 20 μL. JAK2 JH2-V617F (0.26 nM) was incubated with compounds (100 nL serially diluted in DMSO) in the presence of 50 nM Fluorescent JAK2-JH2 Tracer (MedChem Express Catalog #HY-102055) and 0.25 nM Streptavidin-Tb cryptate (Cisbio Part #610SATLB) in assay buffer (50 mM Tris, pH=7.5, 10 mM MgCl2, 0.01% Brij-35, 0.1% BSA, 1 mM EGTA, 5% Glycerol and 5 mM DTT). Non-specific binding was accessed in the presence of 2 mM ATP. After incubation for 1 hour at 25° C., LanthaScreen signals were read on a PHERAstar FS plate reader (BMG LABTECH). Data was analyzed with IDBS XLfit and GraphPad Prism 5.0 software using a four parameter dose response curve to determine IC50 for each compound.
(In general: TR-FRET usually uses a lanthanide donor and a delayed reading to cut background.)

The nature of data set [2]: FaSSIF Solubility Assay. It counts as physicochemical. The settings on record: FaSSIF (fasted state simulated intestinal fluid), 25 °C, pH 6.5, fassif, thermodynamic from solid, FaSSIF pH=6.5, 25° C. From the text:
The FaSSIF (Fasted State Simulated Intestinal Fluid) solubility assay can predict how an oral drug is likely to be dissolved and potentially absorbed in the upper intestine after drinking a glass of water. FaSSIF solubility assay utilizes biorelevant intestinal media (Biorelevant, Part #FFF01) comprised of physiological surfactants, bile salts, and phospholipids that are present in the gastrointestinal fluids it mimics. FaSSIF (pH=6.5) has the average pH of a fasted intestinal fluid with similar osmolarity. The FaSSIF buffer was prepared by adding 20 mL of phosphate buffer to FaSSIF Powder. The buffer was then added to the dry compound of interest at a concentration of 1 mg/mL and then incubated at 25° C. for 24 hours in a Rototherm Plus (Part #H2024). After incubation, the Eppendorf tubes were centrifuged and run on an Agilent 1260 LC-MS. The LC-MS method is a 5 min gradient method of 2% to 95% acetonitrile with water (0.05% TFA) using a Sunfire C18, 5 um 2.1×50 mm (Part #186002539) column. A dry reference compound of interest was diluted to a known 1 mg/mL concentration in 1:1 of water and acetonitrile. Step-wise serial dilutions were performed and run on an Agilent 1260 LC-MS using the same conditions to make a standard curve. The area under the curve is reported for the compound of interest in FaSSIF buffer and the reference standards. Calculations were performed and the predicted solubility, μg/mL, was reported for compounds of the examples.

The target of data set [3] is FLT3 (Homo sapiens (Human), UniProt P36888). Briefly: FLT3 Enzymatic Assay. It counts as biochemical. As to conditions: 1 mM ATP. As to the method:
(§1) The kinase assays were carried out at room temperature in assay buffer (HEPES 50 mM, pH 7.0, NaN3 0.02%, BSA 0.01%, Orthovanadate 0.1 mM, DTT 1 mM, MgCl2 10 mM) in a final volume of 10 μL. Testing compounds were prepared by serial dilution in DMSO and transferred to the plate wells by ECHO liquid handler (Labcyte) with 0.5% DMSO in the final assay. […]. Reactions were initiated by the addition of 5 μL ATP in assay buffer. The final 10 μL kinase reaction consists of 0.011 nM FLT3, 1 mM ATP, 500 nM TK Substrate-biotin and SEB reagent 62.5 nM in assay buffer. […] The plates were then sealed and centrifuged at 1800 rpm for 2 minutes. After 60 minutes incubation at room temperature, the product activity was determined by measuring the fluorescence at 620 nm and 665 nm on Pherastar microplate reader (BMG Labtech). A ratio is calculated (665/620 nm) for each well. Wells with DMSO only were served as the positive controls and wells containing no ATP were used as negative controls. IC50 determination was performed by fitting the curve of percent control activity versus the log of the compound concentration using the GraphPad Prism 7.0 software.

The test system of data set [4] is FLT3. Put plainly: FLT3 Enzymatic Assay. It counts as biochemical. The procedure: as §1
Data set [5] addresses TRKA (Homo sapiens (Human), UniProt P04629). Briefly: TRKA Enzymatic Assay. It counts as biochemical. As to conditions: 1 mM ATP. As to the method:
(§2) The kinase assays were carried out at 24° C. temperature in assay buffer (HEPES 50 mM, pH 7.0, NaN3 0.02%, BSA 0.01%, Orthovanadate 0.1 mM, DTT 1 mM, MgCl2 10 mM) in a final volume of 10 μL. Testing compounds were prepared by serial dilution in DMSO and transferred to the plate wells by ECHO liquid handler (Labcyte) with 0.5% DMSO in the final assay. […]. Reactions were initiated by the addition of 5 μL ATP in assay buffer. The final 10 μL kinase reaction consisted of 0.58 nM TRKA, 1 mM ATP, 500 nM TK Substrate-biotin and SEB reagent 62.5 nM in assay buffer. […] After 60 minutes incubation at room temperature, the product activity was determined by measuring the fluorescence at 620 nm and 665 nm on Pherastar microplate reader (BMG Labtech). A ratio was calculated (665/620 nm) for each well. Wells with DMSO only served as the positive controls and wells containing no ATP were used as negative controls. IC50 determination was performed by fitting the curve of percent control activity versus the log of the compound concentration using the Gene data.

In data set [6] the test system is TRKA. Briefly: TRKA Enzymatic Assay. It counts as biochemical. As to the method:
as §2

Data set [7] relates to STAT5 (Tyr694) phosphorylation in SET-2 cells. Put plainly: STAT5 (Tyr694) Phosphorylation Cell Based Assay. As to conditions: Homo sapiens, 2 hours, read-out: SET2 IC50. The procedure: SET-2 cells was purchased from DSMZ (Germany). RPMI1640 medium, Fetal Bovine Serum and 384-white sold flat-bottom small volume plate were purchased from Thermo Fisher Scientific (Waltham, MA). Phospho-STAT5 (Tyr694) HTRF kit was purchased from Perkin Elmer (Waltham, MA).
SET-2 cells were cultured in RPMI media with 20% FBS at 37° C. in humidified incubator supplied with 5% CO2. On the day of assay, the cells were centrifuged to remove the culture media and resuspended with prewarmed RPMI with 10% FBS. Testing compounds were prepared by serial dilution in DMSO and 50 nL/well test compounds were transferred to the 384 white low volume cell culture plate (Greiner Bio-one) by ECHO liquid handler (Labcyte). The cells were then dispensed with Multidrop (Thermo Fisher, Waltham, MA) at 10 μL/well (7×10^6 cells/mL) with 0.5% DMSO in the final assay. After the treated cells were incubated for 2 hours at 37° C./5% CO2 incubator, 4 μL/well supplemented lysis buffer (100× blocking buffer diluted 25 fold in 4× lysis buffer, Perkin Elmer) were added and incubated at room temperature for 90 min on orbital shaker at 600 rpm. Phospho-STAT5 Cryptate antibody and Phospho-STAT5 d2 antibody (1:1 vol/vol) were premixed and diluted 20 fold with in the detection buffer (Perkin Elmer). 4 μL of the premixed antibody solution were added to each well followed with 24 hours incubation at room temperature on orbital shaker at 600 rpm. The product activity was determined by measuring the fluorescence at 620 nm and 665 nm on Pherastar microplate reader (BMG Labtech). A ratio is calculated (665/620) for each well. Wells with DMSO only served as the positive controls and wells containing high concentration of control compound were used as negative controls. IC50 determination was performed by fitting the curve of percent control activity versus the log of the compound concentration using the GraphPad Prism 7.0 software.

The target of data set [8] is catalytic domain (JH1) of human JAK2 (Homo sapiens (Human), UniProt O60674). Put plainly: JAK2 LanthaScreen JH1 Binding Assay. The settings on record: read-out: JH1 Bind IC50. As to the method: JAK2 JH1 binding assay utilizes catalytic domain (JH1, amino acids 826-1132) of human JAK2 expressed as N-terminal FLAG-tagged, biotinylated protein in a baculovirus expression system (Carna Biosciences, Product #08-445-20N). The assay was conducted in black 384-well polystyrene plates in a final reaction volume of 20 μL. JAK2 JH1 (1.5 nM) was incubated with compounds (100 nL serially diluted in DMSO) in the presence of 50 nM fluorescent JAK2-JH1 tracer and 0.5 nM Streptavidin-Tb cryptate (Cisbio Part #610SATLB) in assay buffer (50 mM Tris, pH=7.5, 10 mM MgCl2, 0.01% Brij-35, 0.1% BSA, 1 mM EGTA, 5% Glycerol and 5 mM DTT). Non-specific binding was accessed in the presence of 2 mM ATP. After incubation for 2 hours at 25° C., LanthaScreen signals were read on a PHERAstar FS plate reader (BMG LABTECH). Data was analyzed with IDBS XLfit and GraphPad Prism 5.0 software using a four parameter dose response curve to determine IC50 for each compound.
catalytic domain (JH1) of human JAK2, sequence (O60674 826-1132): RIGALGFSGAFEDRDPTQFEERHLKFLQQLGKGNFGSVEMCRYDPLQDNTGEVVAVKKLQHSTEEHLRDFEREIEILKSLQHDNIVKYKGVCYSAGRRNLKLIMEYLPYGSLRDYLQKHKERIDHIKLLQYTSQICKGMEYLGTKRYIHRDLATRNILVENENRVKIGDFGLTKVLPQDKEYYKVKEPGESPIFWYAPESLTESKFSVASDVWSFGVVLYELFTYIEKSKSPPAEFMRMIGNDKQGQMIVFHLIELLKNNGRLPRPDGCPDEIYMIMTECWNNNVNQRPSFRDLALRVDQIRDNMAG

pseudo-kinase domain (JH2) of human V617F mutant JAK2, sequence (O60674 536-812 V617F/W659A/W777A/F794H): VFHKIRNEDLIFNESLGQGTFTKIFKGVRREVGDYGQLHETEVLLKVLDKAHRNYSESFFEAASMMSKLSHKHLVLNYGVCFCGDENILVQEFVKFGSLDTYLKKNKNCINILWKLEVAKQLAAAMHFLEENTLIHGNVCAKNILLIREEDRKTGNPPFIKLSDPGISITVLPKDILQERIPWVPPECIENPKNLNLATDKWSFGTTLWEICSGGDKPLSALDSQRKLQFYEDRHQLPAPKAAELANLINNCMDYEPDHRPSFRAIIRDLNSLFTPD
TRKA (Homo sapiens (Human), UniProt P04629), sequence (P04629 33-796, species assumed): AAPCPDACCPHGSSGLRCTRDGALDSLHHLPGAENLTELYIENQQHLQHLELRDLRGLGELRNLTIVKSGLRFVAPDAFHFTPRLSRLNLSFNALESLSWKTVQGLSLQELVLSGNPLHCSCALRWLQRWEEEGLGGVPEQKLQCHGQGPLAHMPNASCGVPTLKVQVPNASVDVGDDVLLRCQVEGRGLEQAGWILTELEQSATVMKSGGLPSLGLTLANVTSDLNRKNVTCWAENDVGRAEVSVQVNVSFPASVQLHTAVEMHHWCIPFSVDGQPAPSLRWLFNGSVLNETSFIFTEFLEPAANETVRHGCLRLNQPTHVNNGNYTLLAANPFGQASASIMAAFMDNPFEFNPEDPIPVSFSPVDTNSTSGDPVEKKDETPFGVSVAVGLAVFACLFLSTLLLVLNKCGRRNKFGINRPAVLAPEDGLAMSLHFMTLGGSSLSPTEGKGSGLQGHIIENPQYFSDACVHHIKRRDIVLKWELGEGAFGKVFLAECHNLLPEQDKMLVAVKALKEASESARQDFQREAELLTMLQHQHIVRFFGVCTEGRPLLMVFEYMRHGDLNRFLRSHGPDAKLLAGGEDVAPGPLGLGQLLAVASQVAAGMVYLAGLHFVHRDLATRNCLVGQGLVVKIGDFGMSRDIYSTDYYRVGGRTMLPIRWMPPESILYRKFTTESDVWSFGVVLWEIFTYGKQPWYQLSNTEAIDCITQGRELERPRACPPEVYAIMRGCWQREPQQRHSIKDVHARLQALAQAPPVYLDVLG
FLT3 (Homo sapiens (Human), UniProt P36888), sequence (P36888 27-993, species assumed): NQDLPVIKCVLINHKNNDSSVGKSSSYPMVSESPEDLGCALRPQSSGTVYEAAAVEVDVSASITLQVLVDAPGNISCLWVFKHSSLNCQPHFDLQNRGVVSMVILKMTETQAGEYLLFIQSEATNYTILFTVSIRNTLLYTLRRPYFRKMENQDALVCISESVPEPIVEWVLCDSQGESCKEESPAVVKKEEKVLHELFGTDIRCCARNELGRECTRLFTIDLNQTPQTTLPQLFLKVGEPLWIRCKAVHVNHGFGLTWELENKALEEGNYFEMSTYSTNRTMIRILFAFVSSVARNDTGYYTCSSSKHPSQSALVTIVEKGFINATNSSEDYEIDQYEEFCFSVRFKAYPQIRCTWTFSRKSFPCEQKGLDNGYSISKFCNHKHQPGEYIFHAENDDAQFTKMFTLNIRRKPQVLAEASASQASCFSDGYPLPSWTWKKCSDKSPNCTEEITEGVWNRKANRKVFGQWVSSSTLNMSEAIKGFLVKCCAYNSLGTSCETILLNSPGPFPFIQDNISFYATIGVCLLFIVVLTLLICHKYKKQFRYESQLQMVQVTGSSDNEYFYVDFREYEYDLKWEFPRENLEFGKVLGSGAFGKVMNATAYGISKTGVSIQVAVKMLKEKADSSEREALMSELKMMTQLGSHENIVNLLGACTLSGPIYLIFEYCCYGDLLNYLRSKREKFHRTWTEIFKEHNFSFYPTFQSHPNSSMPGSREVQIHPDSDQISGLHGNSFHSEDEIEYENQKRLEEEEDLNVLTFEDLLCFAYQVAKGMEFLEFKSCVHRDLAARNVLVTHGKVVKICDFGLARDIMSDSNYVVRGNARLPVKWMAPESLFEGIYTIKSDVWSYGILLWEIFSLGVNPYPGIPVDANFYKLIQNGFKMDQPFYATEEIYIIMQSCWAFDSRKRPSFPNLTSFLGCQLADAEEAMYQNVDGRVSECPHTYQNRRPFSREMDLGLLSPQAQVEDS

What is called IC50 is the concentration needed to halve the response being measured. One may read the solubility as how much of the substance goes into solution per volume. On to `COc1ccc(-c2c(-c3cnn(Cc4ccncc4)c3)[nH]c3ncc4c(c23)n(C2CCCC2)c(=O)n4C)cc1` [Comparative Example D, reference compound], for which the half-maximal inhibitory concentration (IC50) in data set [1] was not above 10 nM. In addition, the solubility at 24 h in data set [2] (read-out: FaSSIF solubility) was less than 20 µg/mL.
As to `CN(C)C(=O)c1ccc(-c2[nH]c3ncc4c(c3c2-c2ccc3c(cnn3C)c2)n(C2CCCC2)c(=O)n4C)cc1` [Comparative Example F, reference compound], the half-maximal inhibitory concentration (IC50) in data set [1] was not above 10 nM; in data set [3] it was 25 to 250 nM; in data set [5] it was 25 to 250 nM; in data set [7] it was 300 to 800 nM. The “Selectivity FLT3/JH2 V617F” value in data set [4] is given as “* (selectivity of ≤500-fold)”. In addition, the “Selectivity TRKA/JH2 V617F” value in data set [6] is on record as “* (selectivity of ≤500-fold)”. The solubility at 24 h in data set [2] (read-out: FaSSIF solubility) is less than 20 µg/mL; in data set [2] (read-out: Solubility Fassif), not above 50 µg/mL.
As for `COC(=O)N[C@@H]1CC[C@@H](n2c(=O)n(C)c3cnc4[nH]c(-c5ccc(C(=O)N6CCC(F)(F)CC6)c(F)c5)c(-c5ccc6c(cnn6C(C)C)c5)c4c32)C1` [Example 24, Methyl ((1R,3R)-3-(7-(4-(4,4-difluoropiperidine-1-carbonyl)-3-fluorophenyl)-8-(1-isopropyl-1H-indazol-5-yl)-3-methyl-2-oxo-3,6-dihydroimidazo[4,5-d]pyrrolo[2,3-b]pyridin-1(2H)-yl)cyclopentyl)carbamate], the half-inhibitory concentration (IC50) in data set [1] was not above 10 nM; in data set [8] it was more than 1000 nM; in data set [3], more than 2500 nM; in data set [5], more than 2500 nM; in data set [7] it was 300 to 800 nM. Moreover, in data set [4], the “Selectivity FLT3/JH2 V617F” value was “****** (selectivity of >12500-fold)”. Moreover, the “Selectivity TRKA/JH2 V617F” value in data set [6] was “****** (selectivity of >12500-fold)”.

These data come from patent US20250092044A1, “Kinase Inhibitors” (Incyte Corporation, priority 2023, published 2025).
